Source: patent publication US20230255957A1, “VIRAL ENTRY INHIBITORS AND RNA POLYMERASE INHIBITORS” (SELVA THERAPEUTICS, INC., priority 2020, published 2023)
“And” between values parts separate entries of the source, which are not always exact repeats. Equal entries are not always repeated. Where two headings read alike, the source gives them in different places.

Assays:
SARS-CoV-2 [1] = assay: In vitro cytopathogenic effect / EC100 assay, K11777 and Remdesivir, Vero E6; assay type: cell-based; conditions: for EC100: compound alone
Description: (§1) Controlled in vitro assays were conducted to measure the concentrations of K11777 and Remdesivir in combination required to induce 100% maximal response (EC100) for SARS-CoV-2 activity in the Vero E6 cell line. The concentrations of the combination are also compared to the concentrations required for each compound to achieve the same result individually.
The designation “ND” indicates no cytopathogenic effect was detected. The designation “C” indicates the composition itself caused a cytotoxic effect. The designation “n/a” means no observation was made.

[2] = Cytotoxicity to host cells, Calu-3; assay type: cell-based; conditions: human, Calu-3 cells
Description: (§2) Controlled […] assays were conducted to measure the half-maximal effective concentration (EC50) of K777 required to prevent entry of SARS-CoV-2 in various cell lines, as well as cytotoxicity to the host cells (CC50).

SARS-CoV-2 [3] = assay: Follow up pilot study, viral load in pharyngeal and nasal swabs and BAL; assay type: in vivo, African Green Monkey
SARS-CoV-2 [4] = assay: microbe, parasite or virus in culture; assay type: cell-based; conditions: read-out: Inhibition of Viral Infectivity EC50
SARS-CoV-2 [5] = assay: In vitro cytopathogenic effect / EC100 assay, K11777 and EIDD-1931, Vero E6; assay type: cell-based; conditions: for EC100: compound alone
Description: as §1, with “EIDD-1931” for “Remdesivir”
Table 4 is split into two portions (a) and (b) above to accommodate page size. The first columns of 4(a) and (b) show concentration values from 10 μM (micromolar) to 0.078 μM. […] The designation “ND” indicates no cytopathogenic effect was detected.

[6] = Cytotoxicity to host cells, A549/ACE2; assay type: cell-based; conditions: human
Description: as §2

SARS-CoV-2 [7] = assay: Follow up pilot study, non-human primate model, organ assessment at autopsy; assay type: in vivo, African Green Monkey; conditions: for Lung weight % of weight / Lung weight Left lobe / Lung weight Right lobe / Lung weight Total: 7 days, autopsy day 7
Description: Following the initial pilot study, a follow up pilot study was conducted to further explore the potential for efficacy of K777 against SARS-CoV-2 in a non-human primate model (African Green Monkey). The study included eight subjects (N=8), with two controls and six receiving K777. Unlike in the initial pilot, in this follow-up pilot no subjects were pretreated with K777. Each subject was inoculated with SARS-CoV-2 for 8 hours. Each subject was then treated with K777 for 7 days (33 mg/kg/day (n=3) or 100 mg/kg/day (n=3)) or placebo (n=2). Each subject was then sacrificed, and an autopsy was performed at day 7. During the study, measurements of viral load were determined from serial nasal and pharyngeal swabs as well as brochoalveolar fluid (BAL) samples. During autopsy, organ assessment was performed. The results are shown in Tables 2.2, 2.3, 2.4 and 2.5 below and depicted in FIGS. 5 to 12. FIGS. 7 to 10 depict histological slides of lung tissue taken from the subjects in the follow up pilot study after completion of the study. FIG. 6 depicts histological slides of lung tissue taken from a normal human lung and from a human lung with diffuse alveolar damage (DAD) for comparison. In FIGS. 7 to 10, NB numbers are subject identifiers. In FIGS. 8 to 10, “RL” means right lung and “LL” means left lung. FIG. 11 depicts the histopathology shown in FIGS. 8 to 10 in one chart for side-by-side comparison. FIG. 12 depicts viral load for each group on day 1 and day 7 of the follow up pilot study.

[8] = Cytotoxicity to host cells, HeLa/ACE2; assay type: cell-based; conditions: human
Description: as §2

SARS-CoV-2 [9] = assay: Initial pilot study, non-human primate model, organ assessment at autopsy; assay type: in vivo, African Green Monkey; conditions: 100 mg/kg/day, 7 days, pretreated; autopsy day 7
Description: An initial pilot study was conducted to determine the potential for efficacy of K777 against SARS-CoV-2 in a non-human primate model (African Green Monkey). The study included six subjects (N=6), with two controls receiving vehicle only and four receiving K777. Each subject was pretreated with K777 (100 mg/kg) or placebo (control). Each subject was then inoculated with SARS-CoV-2 at […] (3-4 hours after first dose of K777). Each subject was then treated with K777 for 6 additional days (7 days total) (100 mg/kg/day). Each subject was then sacrificed and an autopsy was performed at day 7. During the study, daily measurement of viral titers was performed via BAL, nasal swabs, and pharyngeal swabs. During autopsy, organ assessment was performed. The results are shown in Table 2.1 below and depicted in FIG. 4.

[10] = Cytotoxicity to host cells, Vero E6; assay type: cell-based; conditions: African green monkey
Description: as §2

[11] = conc 0.1 μM (of K11777 in combinations)
[12] = conc 0.3 μM (of K11777 in combinations)
[13] = conc 1 μM (of K11777 in combinations)
[14] = African Green Monkey, SARS-CoV-2
[15] = conc 0.078 uM (of K777 in combinations), Vero E6
[16] = conc 0.3125 uM (of K777 in combinations), Vero E6

Structure (SMILES): CCC(CC)COC(=O)[C@H](C)N[P@](=O)(OC[C@H]1O[C@@](C#N)(c2ccc3c(N)ncnn23)[C@H](O)[C@@H]1O)Oc1ccccc1 [Remdesivir]
- EC100 (SARS-CoV-2 [1]): 3 µM
- cytopathogenic effect (SARS-CoV-2 [1]; conc 0.01 μM (of K11777 in combinations)): CPE
- cytopathogenic effect (SARS-CoV-2 [1]; conc 0.03 μM (of K11777 in combinations)): CPE
- cytopathogenic effect (SARS-CoV-2 [1]; [11]): CPE
- cytopathogenic effect (SARS-CoV-2 [1]; [12]): CPE
- cytopathogenic effect (SARS-CoV-2 [1]; [13]): CPE
- cytopathogenic effect (SARS-CoV-2 [1]; conc 3 μM (of K11777 in combinations)): CPE

Structure (SMILES): CN1CCN(C(=O)N[C@@H](Cc2ccccc2)C(=O)N[C@H](/C=C/S(=O)(=O)c2ccccc2)CCc2ccccc2)CC1 [K777]
- CC50 [2]: > 10 µM
- Viral Load -- Subgenomic E (SARS-CoV-2 [3]; 30 mg/kg/day, BAL, d5): 3.69E+04 Eq. VC/mL
- Viral Load -- Subgenomic E (SARS-CoV-2 [3]; 30 mg/kg/day, Nasal, d3): 1.62E+06 Eq. VC/mL
- Viral Load -- Subgenomic E (SARS-CoV-2 [3]; 30 mg/kg/day, Nasal, d5): 2.07E+04 Eq. VC/mL and 1.91E+04 Eq. VC/mL
- Viral Load -- Genomic N1 (SARS-CoV-2 [3]; 30 mg/kg/day, Phary, d3): 1.11E+09 Eq. VC/mL and 1.87E+09 Eq. VC/mL
- Viral Load -- Genomic N1 (SARS-CoV-2 [3]; 100 mg/kg/day, BAL, d1): 3.38E+08 Eq. VC/mL and 2.69E+08 Eq. VC/mL
- Viral Load -- Subgenomic E (SARS-CoV-2 [3]; 100 mg/kg/day, BAL, d3): 2.45E+06 Eq. VC/mL and 1.58E+06 Eq. VC/mL
- Viral Load -- Subgenomic N (SARS-CoV-2 [3]; 100 mg/kg/day, BAL, d3): 1.31E+07 Eq. VC/mL and 7.93E+06 Eq. VC/mL
- Viral Load -- Subgenomic N (SARS-CoV-2 [3]; 100 mg/kg/day, BAL, d7): 1.40E+05 Eq. VC/mL
- Viral Load -- Subgenomic E (SARS-CoV-2 [3]; 100 mg/kg/day, Nasal, d3): 7.94E+07 Eq. VC/mL
- Viral Load -- Subgenomic N (SARS-CoV-2 [3]; 100 mg/kg/day, Nasal, d7): 4.19E+06 Eq. VC/mL
- Viral Load -- Subgenomic E (SARS-CoV-2 [3]; 100 mg/kg/day, Phary, d3): 3.34E+07 Eq. VC/mL and 2.04E+07 Eq. VC/mL and 3.29E+07 Eq. VC/mL
- Viral Load -- Subgenomic N (SARS-CoV-2 [3]; 100 mg/kg/day, Phary, d7): 3.64E+07 Eq. VC/mL and 5.51E+07 Eq. VC/mL
- viral load as compared to the vehicle (SARS-CoV-2 [3]; [14]): significantly reduced viral load as compared to the vehicle
- EC50 (SARS-CoV-2 [4]; Severe acute respiratory syndrome coronavirus 2, A549-ACE2, A549/ACE2): < 0.08 µM
- EC50 (SARS-CoV-2 [4]; Severe acute respiratory syndrome coronavirus 2, Calu-3, Calu-3): 3 to 5 µM
- EC50 (SARS-CoV-2 [4]; Severe acute respiratory syndrome coronavirus 2, HeLa-ACE2, HeLa/ACE2): 0.004 µM
- EC100 (SARS-CoV-2 [5]; Vero E6): 2.5 µM
- cytopathogenic effect (SARS-CoV-2 [5]; [15]): CPE
- cytopathogenic effect (SARS-CoV-2 [5]; conc 0.156 uM (of K777 in combinations), Vero E6): CPE
- cytopathogenic effect (SARS-CoV-2 [5]; [16]): CPE
- cytopathogenic effect (SARS-CoV-2 [5]; conc 0.625 uM (of K777 in combinations), Vero E6): CPE
- cytopathogenic effect (SARS-CoV-2 [5]; conc 1.25 uM (of K777 in combinations), Vero E6): CPE
- CC50 [6]: > 10 µM
- Lung weight % of weight (SARS-CoV-2 [7]; 33 mg/kg/day): 0.66% and 0.95% and 0.54%
- Lung weight Left lobe (SARS-CoV-2 [7]; 33 mg/kg/day): 24 g and 28 g and 17 g
- Lung weight Right lobe (SARS-CoV-2 [7]; 33 mg/kg/day): 20 g and 28 g and 24 g
- Lung weight Total (SARS-CoV-2 [7]; 33 mg/kg/day): 44 g and 56 g and 41 g
- Lung weight % of weight (SARS-CoV-2 [7]; 100 mg/kg/day): 0.50% and 0.46% and 0.56%
- Lung weight Left lobe (SARS-CoV-2 [7]; 100 mg/kg/day): 14 g and 15 g
- Lung weight Right lobe (SARS-CoV-2 [7]; 100 mg/kg/day): 18 g and 19 g
- Lung weight Total (SARS-CoV-2 [7]; 100 mg/kg/day): 32 g and 33 g and 34 g
- lung damage (histopathology) (SARS-CoV-2 [7]; [14]): protected the lung against diffuse alveolar damage (DAD) and ARDS-like lung damage
- lung to body weight ratios (SARS-CoV-2 [7]; both pilot studies): able to maintain normal lung to body weight ratios
- CC50 [8]: > 10 µM
- Lung weight % of weight (SARS-CoV-2 [9]): 0.52% and 0.49% and 0.51% and 0.58%
- Lung weight Left lobe (SARS-CoV-2 [9]): 13.06 g and 12.79 g and 19.06 g and 21.72 g
- Lung weight Right lobe (SARS-CoV-2 [9]): 17.22 g and 16.99 g and 14.43 g and 16.84 g
- Lung weight Total (SARS-CoV-2 [9]): 30.28 g and 29.78 g and 33.49 g and 38.56 g
- Lymph enlargement (SARS-CoV-2 [9]): 2 fold and 2.5 fold
- CC50 [10]: > 10 µM
- EC100 (SARS-CoV-2 [1]): 1 µM
- cytopathogenic effect (SARS-CoV-2 [1]; [11]): CPE
- cytopathogenic effect (SARS-CoV-2 [1]; [12]): CPE
- cytopathogenic effect (SARS-CoV-2 [1]; [13]): CPE

Structure (SMILES): O=c1[nH]/c(=N\O)ccn1[C@@H]1O[C@H](CO)[C@@H](O)[C@H]1O [EIDD-1931, Beta-d-N4-hydroxycytidine, reference compound]
- cytopathogenic effect (SARS-CoV-2 [5]): CPE
- EC100 (SARS-CoV-2 [5]; Vero E6): 5 µM
- cytopathogenic effect (SARS-CoV-2 [5]; [15]): CPE
- cytopathogenic effect (SARS-CoV-2 [5]; [16]): CPE
- cytopathogenic effect (SARS-CoV-2 [5]; conc 2.5 uM (of K777 in combinations), Vero E6): CPE
